# Data published in ChEMBL document CHEMBL1201862, “PubChem BioAssay data set” (2004).
# The source made the active and inactive calls.
# Experiments:
# [1] = cytotoxicity toward NIH3T3 fibroblasts, dose response, counter-screen, cell-based, ATP luminescence, mouse fibroblasts (AID 2010); type: functional; settings: NIH3T3;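 note: cells exposed to compound for about 90 hours before reading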
# [2] = cytotoxicity in KRAS-transformed pancreatic duct cells, primary screen, cell-based, fluorescence, HTS (AID 431); type: functional; settings: Homo sapiens;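 note: cell line used: HPDE-C7K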
# [3] = cytotoxicity in HPDE-C7 cells, cell-based, fluorescence, HTS (AID 430); type: functional; settings: Homo sapiens
# [4] = inhibitors of intracellular T. cruzi replication, confirmation, NIH3T3 host cells, beta-gal luminescence (AID 2044); type: functional, cell-based;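 note: intracellular parasites grown in NIH/3T3 mouse fibroblasts as host cells; luminescent beta-galactosidase reporter signal from transgenic T. cruzi replicating inside host cells; inhibitors lower the luminescence signal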
# [5] = cells
# [6] = target: T1, Aminopeptidase N (Plasmodium falciparum FcB1/Columbia, UniProt O96935); assay: P. falciparum M1AAP inhibitors, biochemical, fluorogenic H-Leu-NHMec substrate, 1536-well (AID 1445); parameters: species or system Plasmodium falciparum 3D7, 3D7
# T1 sequence (O96935 whole entry): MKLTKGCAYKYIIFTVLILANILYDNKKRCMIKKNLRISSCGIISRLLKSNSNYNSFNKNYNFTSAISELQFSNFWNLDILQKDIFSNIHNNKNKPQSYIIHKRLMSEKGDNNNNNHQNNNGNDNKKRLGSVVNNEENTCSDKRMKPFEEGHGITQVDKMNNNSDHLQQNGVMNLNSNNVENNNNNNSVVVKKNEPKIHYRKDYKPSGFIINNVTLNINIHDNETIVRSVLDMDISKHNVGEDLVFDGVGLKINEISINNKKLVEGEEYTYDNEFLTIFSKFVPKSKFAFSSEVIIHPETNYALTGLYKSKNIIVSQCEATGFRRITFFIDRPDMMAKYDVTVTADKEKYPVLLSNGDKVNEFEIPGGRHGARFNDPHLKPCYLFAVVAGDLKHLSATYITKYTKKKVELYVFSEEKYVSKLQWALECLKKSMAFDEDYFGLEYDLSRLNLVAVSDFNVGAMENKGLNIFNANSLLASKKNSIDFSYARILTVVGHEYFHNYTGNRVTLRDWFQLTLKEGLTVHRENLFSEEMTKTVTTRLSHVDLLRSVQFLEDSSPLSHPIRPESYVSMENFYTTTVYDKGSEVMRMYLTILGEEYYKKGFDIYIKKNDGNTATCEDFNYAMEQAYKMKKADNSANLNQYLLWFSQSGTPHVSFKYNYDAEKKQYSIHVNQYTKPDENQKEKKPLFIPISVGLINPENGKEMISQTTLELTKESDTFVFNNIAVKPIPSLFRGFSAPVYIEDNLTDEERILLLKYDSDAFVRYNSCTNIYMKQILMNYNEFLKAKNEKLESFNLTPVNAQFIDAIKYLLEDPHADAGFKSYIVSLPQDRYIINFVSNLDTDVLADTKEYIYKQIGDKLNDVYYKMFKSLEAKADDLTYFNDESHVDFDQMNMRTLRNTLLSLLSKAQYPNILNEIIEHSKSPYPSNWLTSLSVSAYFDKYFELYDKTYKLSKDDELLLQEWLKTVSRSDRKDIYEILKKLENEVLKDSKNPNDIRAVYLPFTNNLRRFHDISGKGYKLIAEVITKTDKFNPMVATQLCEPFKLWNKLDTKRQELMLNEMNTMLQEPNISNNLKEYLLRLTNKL
# [7] = THP-1 cell cytotoxicity, dose response, cytotoxicity control for Vif-APOBEC3G degradation inhibitor project, THP-1 cells (AID 1117359); type: functional; settings: Human immunodeficiency virus 1, THP-1
# [8] = cytotoxicity toward DRD oncogenic fibroblasts, dose response, cell-based, non-viral oncogenic, luminescence (AID 1934); type: functional; settings: Homo sapiens
# [9] = system: BJ; assay: cytotoxicity toward BJ-TERT-LT-ST fibroblasts, dose response, cell-based, RAS-independent, luminescence (AID 1935); type: functional; settings: Homo sapiens;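 note: BJ fibroblasts immortalized with TERT plus LT and ST oncogenes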
# [10] = target: T2, Protein RecA (Mycobacterium tuberculosis, UniProt P9WHJ3); assay: Fluorescence Cell-Free Homogeneous Dose Retest to Identify Inhibitors of RecA-Intein Splicing Activity. [Related pubchem assays (depositor defined):AID2097, AID2223, AID489010, AID492950]; type: functional
# T2 sequence (P9WHJ3 whole entry): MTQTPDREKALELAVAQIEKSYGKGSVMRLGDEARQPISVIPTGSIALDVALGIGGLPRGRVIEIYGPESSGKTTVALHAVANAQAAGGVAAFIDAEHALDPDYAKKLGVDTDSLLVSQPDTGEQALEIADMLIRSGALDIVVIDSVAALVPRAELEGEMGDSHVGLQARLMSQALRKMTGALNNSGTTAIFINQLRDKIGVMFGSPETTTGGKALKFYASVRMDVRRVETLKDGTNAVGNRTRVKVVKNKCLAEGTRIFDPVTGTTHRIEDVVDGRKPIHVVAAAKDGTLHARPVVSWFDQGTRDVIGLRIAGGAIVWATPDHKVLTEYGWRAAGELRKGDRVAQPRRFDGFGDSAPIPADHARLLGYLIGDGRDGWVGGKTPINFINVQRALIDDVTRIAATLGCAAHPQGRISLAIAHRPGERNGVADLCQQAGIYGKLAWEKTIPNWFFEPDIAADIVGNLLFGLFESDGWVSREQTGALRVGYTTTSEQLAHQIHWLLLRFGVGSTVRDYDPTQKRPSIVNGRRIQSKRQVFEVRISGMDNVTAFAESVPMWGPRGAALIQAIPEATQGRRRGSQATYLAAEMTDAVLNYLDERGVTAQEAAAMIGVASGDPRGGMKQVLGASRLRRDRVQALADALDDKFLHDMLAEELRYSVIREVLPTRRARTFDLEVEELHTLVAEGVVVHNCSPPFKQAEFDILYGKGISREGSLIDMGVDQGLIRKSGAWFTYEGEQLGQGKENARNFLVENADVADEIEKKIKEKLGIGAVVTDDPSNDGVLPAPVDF
# [11] = system: BJ; assay: cytotoxicity toward BJ-TERT fibroblasts, dose response, cell-based, RAS-independent, luminescence (AID 1933); type: functional; settings: Homo sapiens
# [12] = target: T3, Replicative DNA helicase DnaB (Mycobacterium tuberculosis, UniProt P9WMR3); assay: DnaB intein splicing inhibitors, dose response, biochemical, cell-free fluorescence (AID 449749); type: functional
# T3 sequence (P9WMR3 whole entry): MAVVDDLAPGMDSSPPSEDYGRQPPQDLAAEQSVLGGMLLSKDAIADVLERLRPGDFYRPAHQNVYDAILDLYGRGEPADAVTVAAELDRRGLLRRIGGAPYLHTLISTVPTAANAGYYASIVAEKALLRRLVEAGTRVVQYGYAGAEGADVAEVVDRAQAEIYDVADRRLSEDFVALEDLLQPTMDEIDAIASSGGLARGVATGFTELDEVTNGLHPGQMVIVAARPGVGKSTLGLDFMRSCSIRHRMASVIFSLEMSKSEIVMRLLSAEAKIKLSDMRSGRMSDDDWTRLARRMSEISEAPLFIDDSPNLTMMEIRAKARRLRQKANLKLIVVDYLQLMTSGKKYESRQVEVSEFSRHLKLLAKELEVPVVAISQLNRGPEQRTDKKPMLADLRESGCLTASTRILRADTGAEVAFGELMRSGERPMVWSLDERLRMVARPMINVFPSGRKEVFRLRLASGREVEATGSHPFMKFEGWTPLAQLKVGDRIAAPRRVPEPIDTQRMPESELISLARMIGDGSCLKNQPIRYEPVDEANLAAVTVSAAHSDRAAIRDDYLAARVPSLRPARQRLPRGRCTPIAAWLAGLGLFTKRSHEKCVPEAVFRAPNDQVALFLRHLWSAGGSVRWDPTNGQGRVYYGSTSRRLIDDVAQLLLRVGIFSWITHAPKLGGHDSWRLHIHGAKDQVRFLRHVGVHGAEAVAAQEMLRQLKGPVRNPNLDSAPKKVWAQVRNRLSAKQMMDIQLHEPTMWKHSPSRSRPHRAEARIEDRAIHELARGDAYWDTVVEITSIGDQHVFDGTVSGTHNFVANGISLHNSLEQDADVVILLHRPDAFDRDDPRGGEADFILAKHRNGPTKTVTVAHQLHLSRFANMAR
# [13] = system: BJ; assay: cells; type: functional, cell-based; settings: Homo sapiens
# [14] = target: T4, Mannose-6-phosphate isomerase (Homo sapiens, UniProt P34949); assay: human PMI inhibitors, high substrate, primary screen, biochemical, fluorescence intensity, high mannose 6-phosphate (AID 1220)
# T4 sequence (P34949 whole entry): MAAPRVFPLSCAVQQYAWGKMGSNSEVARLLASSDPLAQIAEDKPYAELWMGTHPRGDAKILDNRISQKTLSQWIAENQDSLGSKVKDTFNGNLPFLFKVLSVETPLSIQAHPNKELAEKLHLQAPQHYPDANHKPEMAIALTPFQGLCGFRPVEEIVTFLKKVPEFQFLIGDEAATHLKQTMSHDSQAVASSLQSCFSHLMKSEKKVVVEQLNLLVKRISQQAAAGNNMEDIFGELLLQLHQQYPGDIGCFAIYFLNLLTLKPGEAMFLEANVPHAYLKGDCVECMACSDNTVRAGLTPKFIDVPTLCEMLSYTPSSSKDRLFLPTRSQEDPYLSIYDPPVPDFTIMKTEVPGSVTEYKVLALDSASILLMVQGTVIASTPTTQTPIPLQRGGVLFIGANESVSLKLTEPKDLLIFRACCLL
# [15] = target: T4, Mannose-6-phosphate isomerase; assay: inhibitors of human PMI, primary screen, biochemical, fluorescence intensity, coupled assay (AID 1209)
# [16] = target: T5, NADPH oxidase 1 (Homo sapiens, UniProt Q9Y5S8); type: functional, cell-based;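 note: Cell-based assay with luminescence read-out, IC50 derived from inhibitor dose-response curves; intracellular ROS from endogenous NOX1 in intact HT29 colon cancer cells; potency of inhibitors that lower the ROS luminescence signal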
# T5 sequence (Q9Y5S8 whole entry): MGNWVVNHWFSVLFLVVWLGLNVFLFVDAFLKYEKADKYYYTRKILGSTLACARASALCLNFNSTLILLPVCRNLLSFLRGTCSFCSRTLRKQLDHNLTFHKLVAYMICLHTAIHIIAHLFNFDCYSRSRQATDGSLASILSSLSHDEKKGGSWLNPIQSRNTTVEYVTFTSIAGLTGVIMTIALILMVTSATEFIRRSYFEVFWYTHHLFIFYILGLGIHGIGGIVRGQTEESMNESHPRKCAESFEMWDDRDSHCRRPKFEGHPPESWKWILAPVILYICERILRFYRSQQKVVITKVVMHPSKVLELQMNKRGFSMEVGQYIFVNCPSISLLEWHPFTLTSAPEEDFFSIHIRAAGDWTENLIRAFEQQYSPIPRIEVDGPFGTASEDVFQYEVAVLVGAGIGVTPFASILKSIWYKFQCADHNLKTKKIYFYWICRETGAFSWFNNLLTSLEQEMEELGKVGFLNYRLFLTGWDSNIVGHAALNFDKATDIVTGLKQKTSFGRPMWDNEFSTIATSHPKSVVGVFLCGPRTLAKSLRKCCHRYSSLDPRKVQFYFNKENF
# [17] = growth suppression of PTEN-null colon cells, dose response, cell-based, HCT116 PTEN knockout (AID 1047); type: functional;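 note: HCT116 colon tumor cells with PTEN knocked out; cells exposed to compound for 60 hours before readout; potency for loss of cell viability measured by luminescence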
# [18] = growth suppression of beta-catenin-knockout colon cells, dose response, cell-based, HCT116, human colon tumor (AID 1045); type: functional;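 note: HCT116 colon tumor cells with beta catenin knocked out; cells exposed to compound for 60 hours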
# [19] = target: Peroxisome proliferator-activated receptor gamma/Nuclear receptor coactivator 1 (Homo sapiens, UniProt P37231); type: functional;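 note: agonist potency as compounds enhance coactivator SRC-1 recruitment to PPARgamma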
# [20] = target: Peroxisome proliferator-activated receptor gamma/Nuclear receptor coactivator 2 (Homo sapiens, UniProt P37231); type: functional;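 note: agonist potency for raising coactivator recruitment to the receptor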
# [21] = target: Peroxisome proliferator-activated receptor gamma/Nuclear receptor coactivator 3 (Homo sapiens, UniProt P37231); type: functional;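 note: agonist potency for raising coactivator recruitment to the receptor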
# [22] = target: T6, DNA repair protein RAD52 homolog (Homo sapiens, UniProt P43351); type: functional, biochemical
# T6 sequence (P43351 whole entry): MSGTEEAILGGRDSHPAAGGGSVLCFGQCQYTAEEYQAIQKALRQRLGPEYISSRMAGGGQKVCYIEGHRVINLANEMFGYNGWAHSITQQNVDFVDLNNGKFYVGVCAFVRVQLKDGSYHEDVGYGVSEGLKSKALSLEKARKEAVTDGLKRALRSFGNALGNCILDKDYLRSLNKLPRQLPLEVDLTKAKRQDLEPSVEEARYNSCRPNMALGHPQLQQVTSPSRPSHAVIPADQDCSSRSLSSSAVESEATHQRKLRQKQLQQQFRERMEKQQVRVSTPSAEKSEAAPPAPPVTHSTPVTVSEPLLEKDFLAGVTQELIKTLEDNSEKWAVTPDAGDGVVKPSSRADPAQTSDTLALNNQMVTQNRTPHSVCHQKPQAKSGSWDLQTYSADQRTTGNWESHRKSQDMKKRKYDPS
# Sequence of Peroxisome proliferator-activated receptor gamma/Nuclear receptor coactivator 2 (P37231 whole entry): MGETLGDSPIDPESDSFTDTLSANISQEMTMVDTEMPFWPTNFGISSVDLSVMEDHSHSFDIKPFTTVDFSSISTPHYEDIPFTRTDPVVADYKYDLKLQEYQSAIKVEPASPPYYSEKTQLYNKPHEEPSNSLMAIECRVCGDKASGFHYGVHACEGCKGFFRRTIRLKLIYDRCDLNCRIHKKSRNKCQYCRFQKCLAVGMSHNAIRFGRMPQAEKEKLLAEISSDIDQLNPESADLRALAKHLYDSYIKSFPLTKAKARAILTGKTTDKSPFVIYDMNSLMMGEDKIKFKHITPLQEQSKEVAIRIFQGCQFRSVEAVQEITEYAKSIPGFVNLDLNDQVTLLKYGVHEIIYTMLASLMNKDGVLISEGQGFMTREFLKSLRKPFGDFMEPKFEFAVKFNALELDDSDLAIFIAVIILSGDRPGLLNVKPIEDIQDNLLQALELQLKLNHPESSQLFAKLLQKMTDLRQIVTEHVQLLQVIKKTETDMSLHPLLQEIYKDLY
# Sequence of Peroxisome proliferator-activated receptor gamma/Nuclear receptor coactivator 2 (Q15596 whole entry, further chain): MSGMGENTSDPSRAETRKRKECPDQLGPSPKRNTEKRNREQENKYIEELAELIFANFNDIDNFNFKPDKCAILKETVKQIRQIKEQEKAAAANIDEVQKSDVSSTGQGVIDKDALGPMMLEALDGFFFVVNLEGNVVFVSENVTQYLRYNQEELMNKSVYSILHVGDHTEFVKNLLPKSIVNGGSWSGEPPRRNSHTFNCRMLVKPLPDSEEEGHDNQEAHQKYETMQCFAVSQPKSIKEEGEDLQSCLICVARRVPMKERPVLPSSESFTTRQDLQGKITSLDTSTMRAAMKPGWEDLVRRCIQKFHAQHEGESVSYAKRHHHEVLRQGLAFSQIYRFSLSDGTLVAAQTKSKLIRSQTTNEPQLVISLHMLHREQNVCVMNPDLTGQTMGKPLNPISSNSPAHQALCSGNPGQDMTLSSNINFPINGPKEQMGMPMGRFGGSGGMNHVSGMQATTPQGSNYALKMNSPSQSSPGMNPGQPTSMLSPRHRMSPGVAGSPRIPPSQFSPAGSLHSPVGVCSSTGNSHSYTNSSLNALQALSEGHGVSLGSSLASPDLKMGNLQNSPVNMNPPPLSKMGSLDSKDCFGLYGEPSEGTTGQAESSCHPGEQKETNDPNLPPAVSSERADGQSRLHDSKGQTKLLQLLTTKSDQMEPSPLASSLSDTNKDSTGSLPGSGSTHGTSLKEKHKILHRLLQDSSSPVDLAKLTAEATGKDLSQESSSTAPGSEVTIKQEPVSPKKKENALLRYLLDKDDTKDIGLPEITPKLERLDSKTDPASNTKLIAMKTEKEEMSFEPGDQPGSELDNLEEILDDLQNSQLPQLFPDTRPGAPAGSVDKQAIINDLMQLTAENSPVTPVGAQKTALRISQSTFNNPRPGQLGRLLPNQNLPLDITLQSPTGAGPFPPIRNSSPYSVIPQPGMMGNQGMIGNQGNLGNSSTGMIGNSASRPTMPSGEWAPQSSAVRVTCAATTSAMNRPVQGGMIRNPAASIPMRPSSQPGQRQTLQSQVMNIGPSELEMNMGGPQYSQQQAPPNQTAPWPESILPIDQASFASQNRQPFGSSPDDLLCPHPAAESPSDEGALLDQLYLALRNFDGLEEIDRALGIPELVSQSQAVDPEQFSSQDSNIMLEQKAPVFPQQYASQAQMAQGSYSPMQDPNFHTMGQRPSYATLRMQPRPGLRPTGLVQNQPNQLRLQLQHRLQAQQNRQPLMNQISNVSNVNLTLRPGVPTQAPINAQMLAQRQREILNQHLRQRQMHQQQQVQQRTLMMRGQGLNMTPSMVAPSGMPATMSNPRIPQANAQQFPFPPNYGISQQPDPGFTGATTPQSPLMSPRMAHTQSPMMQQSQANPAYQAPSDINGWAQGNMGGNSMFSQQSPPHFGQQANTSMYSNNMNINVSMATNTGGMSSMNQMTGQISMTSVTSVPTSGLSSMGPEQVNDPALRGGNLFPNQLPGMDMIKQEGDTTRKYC
# Sequence of Peroxisome proliferator-activated receptor gamma/Nuclear receptor coactivator 1 (P37231 whole entry): as the sequence (P37231 whole entry) above
# Sequence of Peroxisome proliferator-activated receptor gamma/Nuclear receptor coactivator 1 (Q15788 whole entry, further chain): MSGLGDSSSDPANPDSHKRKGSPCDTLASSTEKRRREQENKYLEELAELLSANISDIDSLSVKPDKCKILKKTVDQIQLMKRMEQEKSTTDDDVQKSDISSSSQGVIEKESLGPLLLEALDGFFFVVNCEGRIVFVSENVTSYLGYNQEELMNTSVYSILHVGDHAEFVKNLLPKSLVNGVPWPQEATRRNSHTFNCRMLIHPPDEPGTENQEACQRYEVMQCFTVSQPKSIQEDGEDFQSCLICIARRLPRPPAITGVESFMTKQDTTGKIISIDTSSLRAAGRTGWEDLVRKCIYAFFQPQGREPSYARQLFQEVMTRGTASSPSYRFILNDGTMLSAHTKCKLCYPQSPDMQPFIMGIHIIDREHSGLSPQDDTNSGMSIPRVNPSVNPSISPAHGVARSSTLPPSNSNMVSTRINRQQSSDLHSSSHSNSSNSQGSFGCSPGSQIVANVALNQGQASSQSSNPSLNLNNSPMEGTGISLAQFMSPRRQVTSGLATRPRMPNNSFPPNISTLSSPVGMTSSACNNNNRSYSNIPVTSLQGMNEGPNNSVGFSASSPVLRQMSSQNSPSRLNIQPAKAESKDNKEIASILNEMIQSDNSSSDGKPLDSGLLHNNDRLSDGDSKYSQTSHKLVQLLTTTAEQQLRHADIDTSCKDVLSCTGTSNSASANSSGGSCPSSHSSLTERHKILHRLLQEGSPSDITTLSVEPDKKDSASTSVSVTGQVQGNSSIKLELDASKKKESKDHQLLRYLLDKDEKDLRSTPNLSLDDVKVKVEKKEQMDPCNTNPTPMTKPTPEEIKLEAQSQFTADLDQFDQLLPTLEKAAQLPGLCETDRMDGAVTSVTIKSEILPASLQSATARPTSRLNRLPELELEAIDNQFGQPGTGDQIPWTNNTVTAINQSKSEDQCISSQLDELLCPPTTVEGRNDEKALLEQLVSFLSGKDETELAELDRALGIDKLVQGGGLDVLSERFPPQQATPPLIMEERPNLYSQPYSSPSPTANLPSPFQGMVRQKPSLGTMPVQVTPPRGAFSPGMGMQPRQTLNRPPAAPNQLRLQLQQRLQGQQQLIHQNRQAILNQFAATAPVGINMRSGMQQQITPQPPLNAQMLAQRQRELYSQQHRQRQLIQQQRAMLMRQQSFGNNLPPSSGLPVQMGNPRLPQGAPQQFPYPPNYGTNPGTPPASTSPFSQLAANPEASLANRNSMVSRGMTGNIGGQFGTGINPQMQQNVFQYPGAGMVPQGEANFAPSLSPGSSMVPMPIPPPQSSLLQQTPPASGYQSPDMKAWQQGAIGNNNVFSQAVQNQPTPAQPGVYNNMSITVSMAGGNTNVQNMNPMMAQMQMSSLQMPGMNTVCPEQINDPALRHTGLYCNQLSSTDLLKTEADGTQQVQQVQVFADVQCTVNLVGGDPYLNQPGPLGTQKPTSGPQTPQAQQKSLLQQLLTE
smiles,measurement,setting,value
Cc1cc2oc(=O)cc(CN3CCN(C/C=C/c4ccccc4)CC3)c2cc1O,EC50,[1],> 60 µM (not active)
same,EC50,[2],> 20 µM (not active)
same,EC50,[3],> 20 µM (not active)
same,EC50,[4],0.102 µM (active)
CCOC(=O)N1CCN(S(=O)(=O)c2ccc(C(=O)N(CCCN(C)C)c3nc4cc(OC)ccc4s3)cc2)CC1,EC50,[1],> 30 µM (not active)
same,EC50,[5],0.03 µM (active)
same,EC50,[4],< 0.1 µM (active)
CCOC(=O)N1CCN(c2c(NCc3ccccc3Cl)c(=O)c2=O)CC1,IC50,[6],69.3 µM (active)
same,CC50,[7],29.6 µM (active)
CC(C)N(c1ccccc1)c1ccc(NC(=O)CCl)cc1,EC50,[8],1.37 µM (active)
same,EC50,[1],> 60 µM (not active)
same,EC50,[9],> 150 µM (inconclusive)
same,EC50,[10],0.505 µM (active)
same,EC50,[11],0.344 µM (inconclusive)
same,AC50,[12],4.41 µM (active)
same,EC50,[5],0.102 µM (active)
same,EC50,[4],< 0.1 µM (active)
same,EC50,[13],108 µM (active)
CN1C(=O)N(C)C(=O)C2(Cc3c(ccc4ccccc34)N(C)C2)C1=O,IC50,[14],> 50 µM (not active)
same,IC50,[15],> 50 µM (not active)
Fc1ccc(-c2nc(-c3ccccc3)c(-c3ccccc3)[nH]2)cc1,IC50,[16],> 17 µM (not active)
O=S(=O)(CCN(CCS(=O)(=O)C(F)(F)F)CC1CCCO1)C(F)(F)F (configuration not stated),EC50,[17],15.3 µM (active)
same,EC50,[2],10.6 µM (active)
same,EC50,[3],11.1 µM (active)
same,EC50,[18],9.32 µM (active)
Cc1occc1C(=O)N/N=C/c1ccc(Br)s1,EC50,[19],> 79.4 µM (not active)
same,EC50,[20],> 79.4 µM (not active)
same,EC50,[21],> 79.4 µM (not active)
CN(O)/C=N/C(=S)Nc1ccc(Cl)cc1Cl,IC50,[15],> 50 µM (not active)
COc1cc2nc(N(CCCN(C)C)C(=O)c3ccc(S(=O)(=O)N4CCc5ccccc54)cc3)sc2cc1OC,EC50,[1],16.4 µM (active)
same,EC50,[5],0.129 µM (active)
same,EC50,[4],< 0.1 µM (active)
same,AC50,[22],6.54 µM (active)
Clc1ccc(-c2nc(-c3ccccc3)c(-c3ccccc3)[nH]2)cc1,IC50,[16],> 17 µM (not active)
O=C(Nc1ccc([N+](=O)[O-])cc1)/C(=C/c1cccc([N+](=O)[O-])c1)NC(=O)C1CCCCC1,EC50,[19],> 79.4 µM (not active)
same,EC50,[20],> 79.4 µM (not active)
same,EC50,[21],> 79.4 µM (not active)
